Data from patent US11697648B2, “Fused pyrimidine pyridinone compounds as JAK inhibitors” (THERAVANCE BIOPHARMA R&D IP, LLC, priority 2019, dated 2023).

Assays:
Tyk2 = Tyk2 (Homo sapiens (Human), UniProt P29597); test: Biochemical Tyk2 kinase assay (LanthaScreen)
In short: (§1)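 GST-JAK + GFP-STAT1 peptide, HEPES pH 7.5/MgCl2/EGTA/Brij-35 buffer; cpd preincubation 1 h RT; ATP start, 1 h RT; stop with 10 mM EDTA + 2 nM Tb-anti-pSTAT1; TR-FRET 520/495. 4-parameter IC50 → pKi (Cheng-Prusoff).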

[1] = tested on: IL-2 stimulated STAT5 phosphorylation in Tall-1 human T cell line (JAK3); test: Cellular JAK3 potency assay: inhibition of IL-2 stimulated pSTAT5 in Tall-1 T cells; type: cell-based
In short: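 AlphaLISA SureFire Ultra measures STAT5 Tyr694/699 phosphorylation in lysed Tall-1 human T cells. Cells were exposed to compound for 1 h at 37 °C before a 30 min IL-2 challenge (300 ng/ml final). Values are pIC50 means with standard deviation from signal-versus-concentration curves.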

JAK1 = JAK1 (Homo sapiens (Human), UniProt P23458); test: Biochemical JAK1 kinase assay (LanthaScreen)
In short: as §1

JAK3 = JAK3 (Homo sapiens (Human), UniProt P52333); test: Biochemical JAK3 kinase assay (LanthaScreen)
In short: as §1

JAK2 = JAK2 (Homo sapiens (Human), UniProt O60674); test: Biochemical JAK2 kinase assay (LanthaScreen)
In short: as §1

[2] = IL-2 stimulated pSTAT5, Tall-1 T cells
[3] = selectivity JAK3 over JAK1, difference of pKi

Chain of Tyk2 (P29597 whole entry): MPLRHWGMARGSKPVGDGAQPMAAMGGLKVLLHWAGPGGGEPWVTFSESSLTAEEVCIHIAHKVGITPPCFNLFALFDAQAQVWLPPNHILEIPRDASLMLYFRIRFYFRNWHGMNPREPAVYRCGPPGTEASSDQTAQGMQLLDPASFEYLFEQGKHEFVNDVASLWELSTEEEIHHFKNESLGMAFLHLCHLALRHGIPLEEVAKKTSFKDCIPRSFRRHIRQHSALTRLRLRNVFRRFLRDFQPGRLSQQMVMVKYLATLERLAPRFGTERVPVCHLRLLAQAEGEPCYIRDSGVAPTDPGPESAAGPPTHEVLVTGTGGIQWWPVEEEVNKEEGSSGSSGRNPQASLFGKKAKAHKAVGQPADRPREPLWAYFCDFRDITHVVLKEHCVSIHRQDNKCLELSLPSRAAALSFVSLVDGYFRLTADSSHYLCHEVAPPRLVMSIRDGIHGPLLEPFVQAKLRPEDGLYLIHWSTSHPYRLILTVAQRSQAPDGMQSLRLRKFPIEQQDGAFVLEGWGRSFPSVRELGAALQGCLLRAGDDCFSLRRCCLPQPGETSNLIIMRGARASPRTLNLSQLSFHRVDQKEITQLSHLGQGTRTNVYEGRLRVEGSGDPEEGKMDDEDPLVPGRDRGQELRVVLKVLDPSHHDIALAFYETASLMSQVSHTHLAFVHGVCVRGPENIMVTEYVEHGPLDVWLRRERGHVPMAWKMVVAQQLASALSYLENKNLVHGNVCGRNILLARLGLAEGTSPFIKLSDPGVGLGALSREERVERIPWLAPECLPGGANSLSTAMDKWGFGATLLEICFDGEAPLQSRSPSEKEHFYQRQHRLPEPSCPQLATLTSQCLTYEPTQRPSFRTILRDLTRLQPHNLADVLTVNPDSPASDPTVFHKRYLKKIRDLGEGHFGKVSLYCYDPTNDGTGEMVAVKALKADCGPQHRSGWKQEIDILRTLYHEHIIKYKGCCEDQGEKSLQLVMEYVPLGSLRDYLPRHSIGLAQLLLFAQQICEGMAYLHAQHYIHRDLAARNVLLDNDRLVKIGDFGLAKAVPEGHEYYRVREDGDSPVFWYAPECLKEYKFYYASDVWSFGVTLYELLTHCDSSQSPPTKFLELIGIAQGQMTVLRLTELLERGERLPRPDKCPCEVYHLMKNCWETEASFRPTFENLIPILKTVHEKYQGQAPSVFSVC
Chain of JAK3 (P52333 whole entry): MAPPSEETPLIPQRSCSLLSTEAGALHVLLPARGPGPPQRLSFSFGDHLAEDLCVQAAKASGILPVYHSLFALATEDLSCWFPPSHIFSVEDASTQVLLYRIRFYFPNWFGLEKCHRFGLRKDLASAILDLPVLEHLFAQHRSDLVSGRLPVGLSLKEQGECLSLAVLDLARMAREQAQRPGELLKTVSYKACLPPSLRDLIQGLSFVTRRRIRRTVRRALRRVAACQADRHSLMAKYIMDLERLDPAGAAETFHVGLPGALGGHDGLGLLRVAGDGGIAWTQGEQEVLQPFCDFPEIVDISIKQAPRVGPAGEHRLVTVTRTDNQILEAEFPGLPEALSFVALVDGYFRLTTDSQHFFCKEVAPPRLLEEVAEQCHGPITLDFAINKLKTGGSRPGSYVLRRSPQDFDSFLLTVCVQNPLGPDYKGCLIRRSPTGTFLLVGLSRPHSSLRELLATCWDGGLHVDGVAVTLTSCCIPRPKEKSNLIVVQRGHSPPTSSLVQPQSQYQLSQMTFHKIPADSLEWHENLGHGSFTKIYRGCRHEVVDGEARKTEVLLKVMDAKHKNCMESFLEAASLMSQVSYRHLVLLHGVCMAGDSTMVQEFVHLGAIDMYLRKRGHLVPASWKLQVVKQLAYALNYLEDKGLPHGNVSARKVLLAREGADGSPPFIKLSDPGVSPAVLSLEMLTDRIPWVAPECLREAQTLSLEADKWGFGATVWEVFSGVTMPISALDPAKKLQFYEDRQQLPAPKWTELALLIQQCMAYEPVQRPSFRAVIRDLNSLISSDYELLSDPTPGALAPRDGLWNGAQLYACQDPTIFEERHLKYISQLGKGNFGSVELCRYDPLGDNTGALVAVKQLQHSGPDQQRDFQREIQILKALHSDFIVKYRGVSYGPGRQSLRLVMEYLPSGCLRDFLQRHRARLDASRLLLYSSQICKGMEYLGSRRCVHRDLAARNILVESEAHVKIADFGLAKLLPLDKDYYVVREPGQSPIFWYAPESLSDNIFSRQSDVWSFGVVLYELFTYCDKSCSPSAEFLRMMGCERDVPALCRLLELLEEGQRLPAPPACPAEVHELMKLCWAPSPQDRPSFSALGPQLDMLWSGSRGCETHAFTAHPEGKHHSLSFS
Chain of JAK1 (P23458 whole entry): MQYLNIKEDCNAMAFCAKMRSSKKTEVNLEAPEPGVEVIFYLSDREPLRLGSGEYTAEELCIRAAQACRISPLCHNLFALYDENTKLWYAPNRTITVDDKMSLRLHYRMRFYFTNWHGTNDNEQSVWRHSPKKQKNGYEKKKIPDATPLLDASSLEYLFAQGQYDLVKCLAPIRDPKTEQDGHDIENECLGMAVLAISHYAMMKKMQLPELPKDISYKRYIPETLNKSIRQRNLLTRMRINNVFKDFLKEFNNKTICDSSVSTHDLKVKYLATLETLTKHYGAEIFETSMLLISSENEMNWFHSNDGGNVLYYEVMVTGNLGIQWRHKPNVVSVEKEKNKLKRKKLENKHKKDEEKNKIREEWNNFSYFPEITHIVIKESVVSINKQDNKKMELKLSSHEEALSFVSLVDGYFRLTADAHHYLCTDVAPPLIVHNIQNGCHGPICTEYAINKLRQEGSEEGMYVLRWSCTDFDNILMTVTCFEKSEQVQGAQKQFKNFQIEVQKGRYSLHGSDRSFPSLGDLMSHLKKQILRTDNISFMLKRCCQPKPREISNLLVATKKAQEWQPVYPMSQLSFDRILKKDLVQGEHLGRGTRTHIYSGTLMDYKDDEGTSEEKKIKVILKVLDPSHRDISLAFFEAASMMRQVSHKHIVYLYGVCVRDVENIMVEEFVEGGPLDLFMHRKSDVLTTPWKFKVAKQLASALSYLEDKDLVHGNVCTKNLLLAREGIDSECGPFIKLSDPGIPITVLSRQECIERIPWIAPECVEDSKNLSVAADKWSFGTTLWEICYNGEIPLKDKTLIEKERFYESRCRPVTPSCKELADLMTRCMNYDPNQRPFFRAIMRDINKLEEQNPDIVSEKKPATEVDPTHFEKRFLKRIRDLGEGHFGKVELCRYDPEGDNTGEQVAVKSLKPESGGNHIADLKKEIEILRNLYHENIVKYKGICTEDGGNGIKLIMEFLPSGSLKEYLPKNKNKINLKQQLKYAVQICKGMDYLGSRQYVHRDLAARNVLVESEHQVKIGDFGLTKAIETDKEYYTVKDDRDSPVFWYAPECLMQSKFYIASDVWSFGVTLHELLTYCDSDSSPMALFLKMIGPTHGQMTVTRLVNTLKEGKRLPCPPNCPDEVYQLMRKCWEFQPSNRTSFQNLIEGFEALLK
Chain of JAK2 (O60674 whole entry): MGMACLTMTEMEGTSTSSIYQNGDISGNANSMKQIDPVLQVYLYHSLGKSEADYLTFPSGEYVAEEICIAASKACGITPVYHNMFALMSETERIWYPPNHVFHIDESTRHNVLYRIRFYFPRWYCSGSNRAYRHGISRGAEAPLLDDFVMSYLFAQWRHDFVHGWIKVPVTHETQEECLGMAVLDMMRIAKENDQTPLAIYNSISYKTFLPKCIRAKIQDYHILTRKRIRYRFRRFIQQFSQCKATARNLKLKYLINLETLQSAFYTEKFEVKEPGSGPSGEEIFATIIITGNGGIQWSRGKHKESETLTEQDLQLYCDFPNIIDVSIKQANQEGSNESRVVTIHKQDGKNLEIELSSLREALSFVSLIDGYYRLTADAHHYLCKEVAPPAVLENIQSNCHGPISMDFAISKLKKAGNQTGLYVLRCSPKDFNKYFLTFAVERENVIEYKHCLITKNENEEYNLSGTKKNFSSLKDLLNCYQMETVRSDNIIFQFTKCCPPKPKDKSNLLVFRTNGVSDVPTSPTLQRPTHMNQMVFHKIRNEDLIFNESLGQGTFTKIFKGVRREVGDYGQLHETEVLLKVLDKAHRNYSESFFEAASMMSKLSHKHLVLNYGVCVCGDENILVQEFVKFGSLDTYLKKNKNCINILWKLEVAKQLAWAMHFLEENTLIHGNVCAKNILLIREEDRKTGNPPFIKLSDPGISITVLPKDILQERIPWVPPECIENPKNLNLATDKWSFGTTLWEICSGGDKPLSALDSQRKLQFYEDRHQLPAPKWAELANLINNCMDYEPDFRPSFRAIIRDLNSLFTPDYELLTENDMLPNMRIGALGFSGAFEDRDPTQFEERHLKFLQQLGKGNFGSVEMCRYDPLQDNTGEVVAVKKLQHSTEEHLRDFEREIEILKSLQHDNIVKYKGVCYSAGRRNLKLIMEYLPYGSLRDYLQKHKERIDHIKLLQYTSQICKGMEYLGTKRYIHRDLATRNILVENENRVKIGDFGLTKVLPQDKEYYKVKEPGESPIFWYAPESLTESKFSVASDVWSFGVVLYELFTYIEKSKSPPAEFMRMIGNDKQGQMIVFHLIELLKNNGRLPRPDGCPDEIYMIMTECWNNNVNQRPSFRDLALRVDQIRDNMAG

C[C@H]1CN(c2ccc(Nc3ncc4ccc(=O)n(CCC5CN(C(=O)/C=C/CN(C)C)C5)c4n3)cc2)CCN1C [Example 227]
Tyk 2 (pKi) (Tyk2): E (E represents a pKi value of 7 or below (Ki of 100 nM or above))
Tall-1 (pIC50) [1, 2]: C (C represents a pIC50 value between 6 and 6.7 (IC50 between 1 μM and 200 nM))
JAK 1 (pKi) (JAK1): E (E represents a pKi value of 7 or below (Ki of 100 nM or above))
JAK 3 (pKi) (JAK3): B (B represents pKi value between 9 and 10 (Ki between 1 nM and 0.1 nM))
JAK3 (pKi)-JAK1 (pKi) (JAK3; [3]): A (A represents a value of 3 or above)
JAK 2 (pKi) (JAK2): E (E represents a pKi value of 7 or below (Ki of 100 nM or above))

C=CC(=O)N1CCN(CCn2c(=O)ccc3cnc(Nc4ccc(N5CCN(C)CC5)c(C)c4)nc32)CC1 [Example 49]
Tyk 2 (pKi) (Tyk2): E (E represents a pKi value of 7 or below (Ki of 100 nM or above))
Tall-1 (pIC50) [1, 2]: B (B represents a pC50 value between 6.7 (included) and 7.5 (IC50 between 200 nM and 32 nM))
JAK 1 (pKi) (JAK1): E (E represents a pKi value of 7 or below (Ki of 100 nM or above))
JAK 3 (pKi) (JAK3): B (B represents pKi value between 9 and 10 (Ki between 1 nM and 0.1 nM))
JAK3 (pKi)-JAK1 (pKi) (JAK3; [3]): A (A represents a value of 3 or above)
JAK 2 (pKi) (JAK2): E (E represents a pKi value of 7 or below (Ki of 100 nM or above))

C=CC(=O)N1CC(CCn2c(=O)ccc3cnc(Nc4ccc(N5CCN(C(C)CC)CC5)cc4)nc32)C1 (stereo not drawn) [Example 115]
Tyk 2 (pKi) (Tyk2): E (E represents a pKi value of 7 or below (Ki of 100 nM or above))
Tall-1 (pIC50) [1, 2]: A (A represents a pIC50 value≥7.5 (IC50≤32 nM))
JAK 1 (pKi) (JAK1): E (E represents a pKi value of 7 or below (Ki of 100 nM or above))
JAK 3 (pKi) (JAK3): B (B represents pKi value between 9 and 10 (Ki between 1 nM and 0.1 nM))
JAK3 (pKi)-JAK1 (pKi) (JAK3; [3]): A (A represents a value of 3 or above)
JAK 2 (pKi) (JAK2): E (E represents a pKi value of 7 or below (Ki of 100 nM or above))

C=CC(=O)N1CCN(CCn2c(=O)ccc3cnc(Nc4cnn(Cc5ccccc5)c4)nc32)[C@@H](C)C1 [Example 237]
Tyk 2 (pKi) (Tyk2): E (E represents a pKi value of 7 or below (Ki of 100 nM or above))
Tall-1 (pIC50) ([1]; IL-2 stimulated pSTAT5 in Tall-1 T cells): B (B represents a pC50 value between 6.7 (included) and 7.5 (IC50 between 200 nM and 32 nM))
JAK 1 (pKi) (JAK1): E (E represents a pKi value of 7 or below (Ki of 100 nM or above))
JAK 3 (pKi) (JAK3): B (B represents pKi value between 9 and 10 (Ki between 1 nM and 0.1 nM))
JAK3 (pKi)-JAK1 (pKi) (JAK3; selectivity, difference of pKi values): A (A represents a value of 3 or above)
JAK 2 (pKi) (JAK2): E (E represents a pKi value of 7 or below (Ki of 100 nM or above))

C=CC(=O)N1CCN(CCn2c(=O)ccc3cnc(Nc4ccc(N5CCN(C(=O)C(C)C)CC5)cc4)nc32)CC1 [Example 213]
Tyk 2 (pKi) (Tyk2): E (E represents a pKi value of 7 or below (Ki of 100 nM or above))
Tall-1 (pIC50) [1, 2]: B (B represents a pC50 value between 6.7 (included) and 7.5 (IC50 between 200 nM and 32 nM))
JAK 1 (pKi) (JAK1): E (E represents a pKi value of 7 or below (Ki of 100 nM or above))
JAK 3 (pKi) (JAK3): A (A represents a pKi value≥10 (Ki≤0.1 nM))
JAK3 (pKi)-JAK1 (pKi) (JAK3; [3]): A (A represents a value of 3 or above)
JAK 2 (pKi) (JAK2): E (E represents a pKi value of 7 or below (Ki of 100 nM or above))

C=CC(=O)N1CC(CCn2c(=O)ccc3cnc(Nc4ccc(N(C)Cc5ccccc5)cc4)nc32)C1 [Example 225]
Tyk 2 (pKi) (Tyk2): E (E represents a pKi value of 7 or below (Ki of 100 nM or above))
Tall-1 (pIC50) [1, 2]: C (C represents a pIC50 value between 6 and 6.7 (IC50 between 1 μM and 200 nM))
JAK 1 (pKi) (JAK1): E (E represents a pKi value of 7 or below (Ki of 100 nM or above))
JAK 3 (pKi) (JAK3): B (B represents pKi value between 9 and 10 (Ki between 1 nM and 0.1 nM))
JAK3 (pKi)-JAK1 (pKi) (JAK3; [3]): A (A represents a value of 3 or above)
JAK 2 (pKi) (JAK2): E (E represents a pKi value of 7 or below (Ki of 100 nM or above))
